The values that follow come from US4826875A, “Pharmaceutical compositions containing levodopa methyl ester, preparation and therapeutic applications thereof” (priority 1986, dated 1989).

The structures appear in SMILES notation. Read-outs that look alike come from different tables or passages of the source.

One data set in a line: clinical. Set-up: species or system patients. The conditions noted are these: human, in vivo, po. The text has this: The pharmaceutical composition as per Example 1 above has been orally administered to parkinsonian patients manifesting the on-off phenomenon, in order to evaluate the bioavailability and the clinical effect of LDME in this formulation in comparison with levodopa.
(§1) As previously illustrated, patients manifesting the on-off phenomenon alternate between periods when parkinsonian signs are relatively severe and intervals when parkinsonism is largely, if not completely, replaced by unvoluntary movements.
The absorption of LDME was infact very rapid, reaching the maximum concentration peak at 40-45 minutes from the administration.
Levodopa plasmatic levels after single oral administration
of corresponding doses of active principle (mg 200) re-
spectively of LDME and levodopa in two patients.

The conditions of data set [1]: in vivo.
The conditions of data set [2]: cited from earlier work.
The subject of another data set is Parkinson's disease. The conditions noted are these: cited from earlier work.
The subject of data set [3] is parkinsonian patients manifesting the on-off phenomenon. Briefly: Clinical effect of oral LDME (Example 1 composition) vs levodopa in parkinsonian patients manifesting the on-off phenomenon. Format: in vivo.
Description: as §1

Another data set can be described thus: Solubility. It counts as physicochemical. The following applies: aqueous compositions.
A further data set deals with reserpine-treated cats. The conditions noted are these: cited from earlier work.
For data set [4] the following is noted: other experimental patterns; cited from earlier work.
Data set [5] in a line: Absorption by rectal route.

The molecule `N[C@@H](Cc1ccc(O)c(O)c1)C(=O)O` [levodopa, (-)-3-(3,4-dihydroxyphenyl)-L-alanine] registered a Levodopa plasmatic levels in the data set “clinical” (0 min) of 0 µg/mL. The Levodopa plasmatic levels in the data set “clinical” (0.25 h) came to 0.35 µg/mL. The Levodopa plasmatic levels in the data set “clinical” (0.5 h) is 0.66 µg/mL. The Levodopa plasmatic levels in the data set “clinical” (0.75 h) turned out to be 0.88 µg/mL. The molecule further showed a Levodopa plasmatic levels in “clinical” (1 h) of 1.15 µg/mL. In addition, in “clinical” (80 min), the Levodopa plasmatic levels is 1.67 µg/mL. For the same molecule, the Levodopa plasmatic levels in the data set “clinical” (100 min) is 1.39 µg/mL. Further, the Levodopa plasmatic levels in the data set “clinical” (2 h) is 1.35 µg/mL. In “clinical” (140 min), this molecule had a Levodopa plasmatic levels of 1.05 µg/mL. In the data set “clinical” (160 min), the Levodopa plasmatic levels was determined as 0.82 µg/mL. In the data set “clinical” (3 h), this molecule displayed a Levodopa plasmatic levels of 0.80 µg/mL. Further, the Levodopa plasmatic levels in “clinical” (3.5 h) was 0.58 µg/mL. This molecule also registered a Levodopa plasmatic levels in the data set “clinical” (4 h) of 0.45 µg/mL. In the data set “clinical” (4.5 h), this molecule came in with a Levodopa plasmatic levels of 0.38 µg/mL. Further, in “clinical” (5 h), the Levodopa plasmatic levels came out at 0.17 µg/mL. Further, in “clinical” (Levodopa plasmatic levels), the concentration at 0.25 h turned out to be 310 ng/mL, the concentration at 0.5 h came out at 1050 ng/mL, the concentration at 0.75 h amounted to 1410 ng/mL and the concentration at 1 h is 1130 ng/mL. In “clinical” (Levodopa plasmatic levels), this molecule gave a concentration at 80 min of 1470 ng/mL, a concentration at 100 min of 1170 ng/mL, a concentration at 2 h of 930 ng/mL and a concentration at 140 min of 1030 ng/mL. In addition, in the data set “clinical” (Levodopa plasmatic levels), the concentration at 160 min was determined as 820 ng/mL, the concentration at 3 h was determined as 650 ng/mL, the concentration at 3.5 h came out at 700 ng/mL and the concentration at 4 h is 490 ng/mL. In “clinical” (Levodopa plasmatic levels), this molecule came in with a concentration at 4.5 h of 350 ng/mL, a concentration at 5 h of 280 ng/mL and a concentration at 5.5 h of 420 ng/mL. In data set [1], the “rectal absorption / plasma levels by rectal administration” value was “not absorbed by rectal mucosa”. In addition, in data set [2], the solubility entry was “slightly soluble”. Moreover, in the data set with Parkinson's disease (chronic treatment per os), the “duration of efficacy ("end-of-dose deterioration")” value was 3 to 4 h and the unwanted effects result is reported as “abnormal unvoluntary movements”. In the data set with Parkinson's disease (constant intravenous infusion), the clinical response result was “a stable clinical response can be maintained for hours”.

As to `CC(C)C[C@H]1C(=O)N2CCC[C@H]2[C@]2(O)O[C@](NC(=O)[C@@H]3C=C4c5cccc6[nH]c(Br)c(c56)C[C@H]4N(C)C3)(C(C)C)C(=O)N12` [bromocriptine], the “prevention or reduction of response fluctuations” value with Parkinson's disease (alternative therapies with dopaminergic drugs) is reported as “do not give actual advantages in prevention or reduction of response fluctuations”.

On to `COC(=O)[C@@H](N)Cc1ccc(O)c(O)c1` [LDME, levodopa methyl ester], for which, in “clinical”, the absorption entry is “very rapid” and the “time of maximum concentration peak from the administration” value lay within 40 to 45 min. In addition, the Levodopa plasmatic levels in “clinical” (0 min) amounted to 0 µg/mL. In the data set “clinical” (330 min), this molecule showed a Levodopa plasmatic levels of 0.20 µg/mL. In addition, in data set [3] (composition of Example 1), the “duration of action ("on" period duration) in respect to levodopa” value was “superior” and the “onset of the therapeutic effect” value is 20 to 30 min. In addition, the “dyskinesias at the moment of the appearance of the mobility ("on" phase)” value in data set [3] (composition of Example 1, subjects presenting "long-term syndrome", preliminary trials) is “does not seem to induce dyskinesias”. Besides, the solubility result in the data set “Solubility” is listed as “high solubility”. Moreover, the “effects compared with levodopa (brain catecholamine levels, conditioned avoidance response)” value in the data set with reserpine-treated cats was “causes the same effects as levodopa”. Moreover, the “activity compared with the starting compound (levodopa)” value in data set [4] is recorded as “as active as the starting compound”. Besides, the “rectal absorption / plasma levels by rectal administration” value in data set [5] is reported as “detectable plasma levels sufficient to assure a therapeutic effect”.
